A word on the EC50: it is the concentration giving half of the maximal effect.

Holding throughout (assay type): cell-based
Assay [1] concerns the target T1, mGluR5 (Homo sapiens, UniProt P41594).
T1 construct: expressed in transfected cells
The assay is described as follows: FLIPR Ca2+ flux assay in human mGluR5 CHONFAT/mGLAST cells. Conditions: Fluo-4, FLIPR384, normalized to glutamate (10 μM) control maximum; EC50 values only in figure. The method, then:
Agonists were added after 10 seconds of baseline determination. Data were normalized to a glutamate (10 μM) control maximum. Concentration-response curves were generated from mean data of 5 experiments. Error bars are SEM.
CHO cells expressing mGluR5 receptors (mGluR5 CHO cells) were plated in clear-bottomed, poly-D-lysine coated 384-well plates (Becton-Dickinson 35-6663 Franklin Lakes USA) in glutamate/glutamine-free medium using a Multidrop 384 cell dispenser (Thermo Labsystems, Franklin USA). The plated cells were grown overnight at 37° C. in the presence of 6% CO2. The following day, the cells were washed with 3×100 μl assay buffer (Hanks Balanced Salt Solution (Gibco 14025) containing 20 mM HEPES (Gibco 15630), 2.5 mM probenicid (Sigma P-8761), and 0.1% bovine serum albumin (Sigma) using an Embla cell washer (Skatron, Lier Norway). The cells were incubated with 1 μM Fluo-4AM (Molecular Probes) for 1 h at 37° C. and 6% CO2. The extracellular dye was removed by washing as described above. Ca^2+ flux was measured using FLIPR384, fluorometric imaging plate reader (Molecular Devices, Sunnyvale USA). For potency determination, the cells were pre-incubated with various concentrations of compound for 5 min and then stimulated for 3 min with either an EC20 or EC50 concentration of agonist (i.e. glutamate) for potentiation measurements or antagonist measurements, respectively.
(A change in cytosolic calcium serves as a functional read-out for many receptors and channels.)

In assay [2] the target is T1, mGluR5. The assay is described as follows: β-lactamase reporter gene assay in mGluR5CHONFAT cells without mGLAST co-expression. As to conditions: 1 μM quisqualate. An excerpt:
(§1) Aurora transcription based reporter cell lines were used to develop reporter gene assays for the mGluRs. The cell line, CHONFAT-β-lactamase, reports signaling through Gq-coupled receptors via an increase in intracellular calcium. The β-lactamase gene is under the transcriptional control of the nuclear factor of activated T-cells (N-FAT) promoter (reporting increased intracellular calcium). A second cell line Gqi5CHONFAT was utilized for Gi coupled mGluRs. This cell line contains a promiscuous G-protein that promotes coupling to a Gq signal transduction cascade. […] The production of β-lactamase resulting from the downstream signaling events of receptor activation is detected by loading cells with a fluorescent dye, CCF2-AM, a substrate cleavable by the β-lactamase enzyme. In its cleaved state, the substrate will fluoresce blue (EM460) when stimulated with UV light (395 nm). Noncleaved, the intact dye fluoresces green (EM530) (Science 1998, 279:84-88). The ratio of blue to green cells (Em460/530) is determined as a measure of signal transduction, with cells that have transduced a signal being blue and those that have not green. […]
Background: A reporter such as luciferase makes a cellular process visible.

For assay [3], the target named is T1, mGluR5. The assay is described as follows: β-lactamase reporter gene assay in mGluR5CHONFAT co-expressing mGLAST. An excerpt:
Aurora transcription based reporter cell lines were used to develop reporter gene assays for the mGluRs. The cell line, CHONFAT-β-lactamase, reports signaling through Gq-coupled receptors via an increase in intracellular calcium. The β-lactamase gene is under the transcriptional control of the nuclear factor of activated T-cells (N-FAT) promoter (reporting increased intracellular calcium). A second cell line Gqi5CHONFAT was utilized for Gi coupled mGluRs. This cell line contains a promiscuous G-protein that promotes coupling to a Gq signal transduction cascade. […] The production of β-lactamase resulting from the downstream signaling events of receptor activation is detected by loading cells with a fluorescent dye, CCF2-AM, a substrate cleavable by the β-lactamase enzyme. In its cleaved state, the substrate will fluoresce blue (EM460) when stimulated with UV light (395 nm). Noncleaved, the intact dye fluoresces green (EM530) (Science 1998, 279:84-88). The ratio of blue to green cells (Em460/530) is determined as a measure of signal transduction, with cells that have transduced a signal being blue and those that have not green.
Cells were plated at 80,000 cells per well in poly-D-lysine coated black clear bottom plates (Becton Dickinson) and grown in glutamate/glutamine free media (DMEM, -glutamine, 10% dialyzed fetal calf serum, 100 units/ml penicillin/streptomycin, 0.1 mM non-essential amino acids, 1 mM sodium pyruvate, 25 mM HEPES, 0.25 mg/mL zeocin, 10 μg/ml puromycin (Clontech 8052-2) and 1 mg/mL G418 for cell lines co-expressing mGluRs and mGLAST. All media was from GIBCO unless specified. Cells were grown overnight at 5% CO2, 37° C. The next day, media was aspirated and the cells were washed twice with serum-free DMEM and replaced with 100 μL of assay media (DMEM, glutamine free), 0.1% BSA, 25 mM HEPES. […] Plates were read 45-60 minutes later on a fluorescence plate reader (excitation 405±10 nm, emission 460±20 nm for blue; 530±15 nm. Wells containing dye and no cells were used to subtract background values.

Assay [4] concerns CHONFAT cells. The assay is described as follows: β-lactamase reporter gene assay in non-transfected CHONFAT cells. Conditions: 200 nM thapsigargin; maximal fluorescence.
Description: as §1

T1 sequence (P41594 21-1212): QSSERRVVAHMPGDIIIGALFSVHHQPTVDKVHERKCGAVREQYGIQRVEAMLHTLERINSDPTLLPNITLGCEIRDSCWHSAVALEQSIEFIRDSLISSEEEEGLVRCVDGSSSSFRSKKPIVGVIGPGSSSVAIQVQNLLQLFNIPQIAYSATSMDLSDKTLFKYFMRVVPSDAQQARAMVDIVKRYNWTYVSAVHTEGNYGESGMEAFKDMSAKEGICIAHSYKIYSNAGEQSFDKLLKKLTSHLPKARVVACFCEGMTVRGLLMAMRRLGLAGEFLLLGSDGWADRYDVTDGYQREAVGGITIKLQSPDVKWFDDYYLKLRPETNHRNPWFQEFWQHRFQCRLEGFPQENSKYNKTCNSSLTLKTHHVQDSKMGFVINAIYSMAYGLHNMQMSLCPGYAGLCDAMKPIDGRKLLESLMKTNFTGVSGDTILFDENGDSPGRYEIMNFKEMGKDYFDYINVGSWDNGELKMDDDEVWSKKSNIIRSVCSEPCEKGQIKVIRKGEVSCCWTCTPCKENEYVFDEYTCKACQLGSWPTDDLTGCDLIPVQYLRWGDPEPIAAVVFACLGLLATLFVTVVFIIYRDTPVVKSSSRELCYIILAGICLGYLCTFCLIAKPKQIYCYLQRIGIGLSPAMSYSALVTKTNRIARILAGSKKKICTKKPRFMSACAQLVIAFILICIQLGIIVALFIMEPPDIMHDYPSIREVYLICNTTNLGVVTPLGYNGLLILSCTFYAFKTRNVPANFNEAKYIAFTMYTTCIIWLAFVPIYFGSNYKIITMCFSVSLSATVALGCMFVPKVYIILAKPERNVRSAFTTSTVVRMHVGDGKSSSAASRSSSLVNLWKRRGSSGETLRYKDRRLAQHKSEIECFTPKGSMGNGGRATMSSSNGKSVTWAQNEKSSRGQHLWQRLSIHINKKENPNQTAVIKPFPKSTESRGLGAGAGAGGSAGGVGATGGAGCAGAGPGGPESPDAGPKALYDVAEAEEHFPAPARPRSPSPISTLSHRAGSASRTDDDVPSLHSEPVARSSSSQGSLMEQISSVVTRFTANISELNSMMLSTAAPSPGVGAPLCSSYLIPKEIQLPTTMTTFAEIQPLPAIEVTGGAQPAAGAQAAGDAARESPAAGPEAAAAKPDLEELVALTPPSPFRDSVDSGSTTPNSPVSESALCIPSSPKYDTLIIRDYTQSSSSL

Consider `N[C@@H](CCC(=O)O)C(=O)O` [glutamate], for which, in assay [1], the “activation of Ca^2+ transients” value is given as “activate Ca^2+ transients”.

For the molecule `NC(C(=O)O)c1cc(O)cc(O)c1` (centres unmarked) [3,5-DHPG], in assay [1], the “activation of Ca^2+ transients” value is given as “activate Ca^2+ transients”.

Regarding `N[C@@H](Cn1oc(=O)[nH]c1=O)C(=O)O` [quisqualate], the “activation of Ca^2+ transients” value in assay [1] is “activate Ca^2+ transients”. In addition, the “fluorescence ratio (EM460/530)” value in assay [2] was found to be 0.85; in assay [3] (10 μM quisqualate, with mGLAST co-expression), 1.35. Moreover, the figures for the EC50 in assay [3] (dose response in the absence of positive allosteric modulator) and in assay [3] (dose response in the presence of 10 μM positive allosteric modulator) were 44 nM and 15 nM, respectively.

As to `C/C=C(/C)C(=O)O[C@H]1C(C)=C2[C@H]([C@@H]1OC(=O)CCCCCCC)[C@@](C)(OC(C)=O)C[C@H](OC(=O)CCC)[C@@]1(O)[C@H]2OC(=O)[C@@]1(C)O` [thapsigargin], the “fluorescence ratio (EM460/530)” value in assay [4] is 1.0.

The values above are taken from patent US20060275835A1, “Methods for identifying cell surface receptor protein modulators” (priority 2003, published 2006).
